Test results taken from US20130156753A1 (UNIVERSITY OF ROCHESTER, priority 2010, published 2013).

Tested on: HDAC5 nuclear export
Test: PE-induced HDAC5 nuclear export in neonatal rat ventricular cardiomyocytes (NRVMs)
Type: cell-based
Experimental: A, B, Cos7 cells were co-transfected with expression vectors encoding GFP-tagged HDAC5 (GFP-HDAC5) and constitutively active protein kinases as indicated, and then exposed to phorbol-12-myristate-13-acetate (PMA, […]) for 3 hours. […] A-F, The cells were fixed and the subcellular localization of GFP-HDAC5 was visualized by fluorescence microscopy.
(§1) The cells were fixed and GFP-HDAC5 localization was analyzed by fluorescence microscopy. α-actinin was detected by immunofluorescence using an antibody against α-actinin and a fluorescein-conjugated secondary antibody. The nuclei were stained with DAPI.
as §1, with “DAPI. B, PKA expression in cell lysates were determined by Western blot using PKA antibody.” for “DAPI.”
The cells were fixed and endogenous HDAC5 localization was analyzed by fluorescence microscopy. HDAC5 and α-actinin was detected by immunocytochemistry with antibody against HDAC5 and α-actinin.
The cells were fixed and GFP-HDAC5 subcellular localization was analyzed by fluorescence microscopy and stained with an α-actinin antibody and DAPI.
Cos7 cells were grown in Dulbecco's Modified Eagle's Medium (DMEM) supplemented with fetal bovine serum (10%), 1-glutamine and penicillin/streptomycin. Primary cultures of neonatal rat cardiac ventricular myocytes (NRVMs) from 1- to 2-day-old Sprague-Dawley rats (Charles River Laboratories) were prepared. In brief, NRVMs were dispersed from the ventricles by digestion with collagenase type II (Worthington). Cells were cultured in Dulbecco's modified Eagle's medium (DMEM) supplemented with 1,000 mg/L D-glucose, L-glutamine, and 110 mg/L sodium pyruvate (GIBCO), fetal bovine serum (10%), and penicillin/streptomycin at 37° C. in a 5% CO2 humidified atmosphere for 2-3 days. For inducer or inhibitor studies, cells were pretreated with various inducers or inhibitors for 30 min in serum-free medium. Primary cultures of adult rat cardiomyocytes were prepared from 200-250g male Sprague-Dawley rats. Briefly, rats were anesthetized, hearts excised and placed in Krebs buffer and perfused and digested with endotoxin-free collagenase II (Worthington). This protocol typically yielded approximately 4×10^6 cells per heart, with ˜85% surviving, rod-shaped Ca2+-tolerant cells. Myocytes were allowed to attach to 20 μg/ml laminin coated plates in Modified Eagle Medium (MEM) containing 2.5% FBS, 25 mmol/L HEPES, 5 mmol/L taurine, 2 mmol/L carnitine, 2 mmol/L creatinine, 100 IU/ml penicillin, and 100 μg/ml streptomycin for 2 hrs before replacing with serum-free MEM containing 25 mmol/L HEPES, 5 mmol/L taurine, 2 mmol/L carnitine, 2 mmol/L creatinine, 100 IU/ml penicillin, and 100 μg/ml streptomycin.
Adenoviruses encoding Flag-tagged HDAC5 wild-type (WT), GFP-tagged HDAC5-WT, and YFP-tagged HDAC7-WT were generated as described previously (Ha C H, et al. (2008) Protein Kinase D-dependent Phosphorylation and Nuclear Export of Histone Deacetylase 5 Mediates Vascular Endothelial Growth Factor-induced Gene Expression and Angiogenesis. J Biol Chem 283(21):14590-14599; Ha C H et al. (2008) VEGF stimulates HDAC7 phosphorylation and cytoplasmic accumulation modulating matrix metalloproteinase expression and angiogenesis. Arterioscler Thromb Vasc Biol 28(10):1782-1788). Adenovirus expressing GFP-tagged HDAC5-S280A mutant, GFP-tagged HDAC5-S280D mutant and Flag-tagged HDAC5-S280A mutant were generated by using ViraPower Adenoviral Expression System (Invitrogen) according to the manufacturer's protocol. Adenovirus containing β-galactosidase (LacZ) or GFP was used as a control. […]

CCCC(=O)Nc1ncnc2c1ncn2[C@@H]1O[C@@H]2COP(=O)(O)O[C@H]2[C@H]1OC(=O)CCC [cAMP, Dibutyryl-cAMP]
HDAC5 translocation from nucleus to cytoplasm after PE (NRVMs with GFP-HDAC5-WT, cAMP 30 min, PE 24 hours): prevented from translocating from the nucleus to the cytoplasm
PE-induced nuclear export of GFP-HDAC5 S280A (NRVMs, S280A mutant, cAMP 500 μM or forskolin 10 μM 30 min, PE 3 hours): resistant to PKA inhibition
PE-stimulated HDAC5 nuclear export (NRVMs, adenoviral GFP-HDAC5, 30 min pretreatment, PE 10 μM 3 hours): markedly inhibited PE-stimulated HDAC5 nuclear export
PE-induced endogenous HDAC5 nuclear export (NRVMs, endogenous HDAC5, cAMP 500 μM 30 min, PE 10 μM 3 hours): same inhibitory effect
